Assay results: the NIST ThermoML archive (doi:10.1021/je900124n)
“And” between values parts separate entries of the source, which are not always exact repeats. Equal entries are not always repeated.

Conditions: Fluid (supercritical or subcritical phases), Buoyancy - hydrostatic balance with magnetic suspension - two sinkers

CCC [propane]
Conditions	mass density
369.83 K, 4284.6 kPa	281.214 kg/m3 and 281.229 kg/m3 and 281.215 kg/m3
369.83 K, 4284.7 kPa	281.219 kg/m3 and 281.22 kg/m3
369.83 K, 4985.9 kPa	337.354 kg/m3 and 337.357 kg/m3
369.83 K, 4986 kPa	337.358 kg/m3 and 337.357 kg/m3
369.83 K, 4986.1 kPa	337.356 kg/m3 and 337.357 kg/m3
369.83 K, 8381.5 kPa	391.64 kg/m3
369.83 K, 8382 kPa	391.644 kg/m3 and 391.642 kg/m3 and 391.641 kg/m3
369.83 K, 8382.2 kPa	391.644 kg/m3
369.83 K, 8382.4 kPa	391.643 kg/m3
369.83 K, 8382.6 kPa	391.644 kg/m3
369.85 K, 311.85 kPa	4.5865 kg/m3 and 4.5866 kg/m3
369.85 K, 311.86 kPa	4.5867 kg/m3
369.85 K, 554.46 kPa	8.3301 kg/m3 and 8.3303 kg/m3
369.85 K, 927.78 kPa	14.4328 kg/m3 and 14.4326 kg/m3
369.85 K, 927.79 kPa	14.4329 kg/m3
369.85 K, 1387.4 kPa	22.6395 kg/m3 and 22.6384 kg/m3 and 22.6393 kg/m3
369.85 K, 1387.5 kPa	22.64 kg/m3 and 22.6401 kg/m3
369.85 K, 2120.4 kPa	37.8404 kg/m3 [middle of 5 runs]
369.85 K, 2871.7 kPa	57.8231 kg/m3
369.85 K, 2871.8 kPa	57.8298 kg/m3 and 57.8251 kg/m3
369.85 K, 3827.6 kPa	100.815 kg/m3 and 100.816 kg/m3
369.85 K, 3827.7 kPa	100.817 kg/m3
369.85 K, 4188.1 kPa	146.906 kg/m3
369.85 K, 4188.2 kPa	146.91 kg/m3
369.85 K, 4188.3 kPa	146.915 kg/m3 and 146.912 kg/m3
369.85 K, 4188.4 kPa	146.917 kg/m3
369.85 K, 4241.5 kPa	177.435 kg/m3
369.85 K, 4241.8 kPa	177.526 kg/m3 and 177.58 kg/m3 and 177.506 kg/m3
369.85 K, 4241.9 kPa	177.65 kg/m3
369.85 K, 4248.2 kPa	218.49 kg/m3 and 218.749 kg/m3 and 220.705 kg/m3
369.85 K, 4248.3 kPa	224.686 kg/m3 and 220.268 kg/m3
369.85 K, 4248.4 kPa	235.513 kg/m3 and 235.434 kg/m3
369.85 K, 4248.6 kPa	231.541 kg/m3 and 236.898 kg/m3
369.85 K, 4258.6 kPa	265.216 kg/m3 and 265.238 kg/m3
369.85 K, 4258.7 kPa	265.211 kg/m3
369.85 K, 4372.9 kPa	299.086 kg/m3
369.85 K, 4373 kPa	299.075 kg/m3
369.85 K, 4373.1 kPa	299.089 kg/m3
369.85 K, 4373.2 kPa	299.082 kg/m3
369.85 K, 5012.2 kPa	338.098 kg/m3
369.85 K, 5012.3 kPa	338.097 kg/m3
369.85 K, 5012.5 kPa	338.099 kg/m3
369.85 K, 5012.6 kPa	338.102 kg/m3
369.85 K, 5520.1 kPa	352.211 kg/m3
369.85 K, 5520.4 kPa	352.212 kg/m3
369.86 K, 554.46 kPa	8.3303 kg/m3 and 8.3302 kg/m3
369.86 K, 927.79 kPa	14.4327 kg/m3 and 14.4326 kg/m3
369.86 K, 4248.7 kPa	234.526 kg/m3
369.86 K, 4258.8 kPa	265.251 kg/m3 and 265.229 kg/m3
369.86 K, 5520.6 kPa	352.209 kg/m3 and 352.21 kg/m3
369.93 K, 4252.7 kPa	197.999 kg/m3 and 197.778 kg/m3
369.93 K, 4252.8 kPa	198.048 kg/m3 [middle of 4 runs]
369.93 K, 4252.9 kPa	197.901 kg/m3
369.93 K, 4253.8 kPa	232.64 kg/m3
369.93 K, 4253.9 kPa	232.539 kg/m3
369.93 K, 4254 kPa	231.862 kg/m3 [middle of 5 runs]
369.93 K, 4255 kPa	244.442 kg/m3 [middle of 4 runs]
369.93 K, 4255.1 kPa	244.551 kg/m3 and 244.556 kg/m3
369.93 K, 4255.2 kPa	244.584 kg/m3 and 244.7 kg/m3
369.95 K, 4248.2 kPa	177.636 kg/m3
369.95 K, 4248.3 kPa	177.67 kg/m3 and 177.631 kg/m3 and 177.707 kg/m3
369.95 K, 4248.4 kPa	177.657 kg/m3
369.95 K, 4255.7 kPa	214.994 kg/m3 and 214.812 kg/m3 and 213.928 kg/m3
369.95 K, 4255.8 kPa	214.794 kg/m3 and 214.471 kg/m3
369.95 K, 4256.2 kPa	231.389 kg/m3
369.95 K, 4256.3 kPa	231.791 kg/m3 and 231.342 kg/m3
369.95 K, 4256.4 kPa	233.445 kg/m3 and 231.817 kg/m3
369.95 K, 4268 kPa	265.209 kg/m3 and 265.217 kg/m3 and 265.193 kg/m3
369.95 K, 4268.2 kPa	265.233 kg/m3
369.96 K, 4268.2 kPa	265.215 kg/m3
370.03 K, 4259.9 kPa	197.023 kg/m3 and 197.111 kg/m3 and 197.064 kg/m3
370.03 K, 4260 kPa	197.186 kg/m3 [middle of 4 runs]
370.03 K, 4260.1 kPa	197.3 kg/m3
370.03 K, 4261.6 kPa	225.827 kg/m3 and 225.421 kg/m3 and 225.472 kg/m3
370.03 K, 4261.7 kPa	225.904 kg/m3 and 225.809 kg/m3 and 225.73 kg/m3
370.03 K, 4261.8 kPa	225.954 kg/m3 and 225.938 kg/m3
370.03 K, 4263.3 kPa	244.173 kg/m3 and 244.096 kg/m3
370.03 K, 4263.4 kPa	244.149 kg/m3 and 244.214 kg/m3
370.03 K, 4263.5 kPa	244.309 kg/m3 and 244.177 kg/m3 and 244.274 kg/m3
370.03 K, 4263.6 kPa	244.294 kg/m3
370.05 K, 4254.8 kPa	177.712 kg/m3 and 177.662 kg/m3
370.05 K, 4254.9 kPa	177.695 kg/m3 and 177.74 kg/m3 and 177.673 kg/m3
370.05 K, 4263.2 kPa	211.406 kg/m3 and 211.212 kg/m3
370.05 K, 4263.4 kPa	211.466 kg/m3 and 212.306 kg/m3 and 211.429 kg/m3
370.05 K, 4264.2 kPa	229.256 kg/m3 and 228.799 kg/m3
370.05 K, 4264.3 kPa	229.262 kg/m3 and 229.062 kg/m3
370.05 K, 4277.5 kPa	265.204 kg/m3 [middle of 4 runs]
370.05 K, 4277.6 kPa	265.242 kg/m3
370.06 K, 4264.4 kPa	229.28 kg/m3
370.32 K, 4281.1 kPa	196.636 kg/m3
370.32 K, 4281.2 kPa	196.743 kg/m3 and 196.797 kg/m3 and 196.727 kg/m3
370.32 K, 4281.3 kPa	196.729 kg/m3
370.33 K, 4212.1 kPa	146.689 kg/m3 and 146.681 kg/m3
370.33 K, 4212.2 kPa	146.684 kg/m3 [middle of 5 runs]
370.33 K, 4281.2 kPa	196.669 kg/m3
370.33 K, 4281.3 kPa	197.033 kg/m3 and 196.772 kg/m3
370.33 K, 4284.6 kPa	220.89 kg/m3
370.33 K, 4284.7 kPa	220.777 kg/m3 and 220.874 kg/m3 and 220.88 kg/m3
370.33 K, 4284.8 kPa	221.028 kg/m3 and 221.044 kg/m3 and 221.077 kg/m3
370.33 K, 4284.9 kPa	221.146 kg/m3
370.33 K, 4288.5 kPa	243.759 kg/m3 and 243.744 kg/m3 and 243.764 kg/m3
370.33 K, 4288.6 kPa	243.866 kg/m3 [middle of 5 runs]
370.35 K, 4214.3 kPa	147.029 kg/m3 [middle of 5 runs]
370.35 K, 4274.3 kPa	177.77 kg/m3 and 177.777 kg/m3
370.35 K, 4274.4 kPa	177.843 kg/m3 and 177.765 kg/m3 and 177.808 kg/m3
370.35 K, 4285.7 kPa	209.496 kg/m3 [middle of 4 runs]
370.35 K, 4285.8 kPa	209.659 kg/m3
370.35 K, 4287.8 kPa	228.296 kg/m3
370.35 K, 4287.9 kPa	227.176 kg/m3 and 227.342 kg/m3
370.35 K, 4288 kPa	227.25 kg/m3
370.35 K, 4305.9 kPa	265.204 kg/m3
370.35 K, 4306 kPa	265.214 kg/m3 and 265.193 kg/m3
370.35 K, 4306.1 kPa	265.222 kg/m3
370.36 K, 4288 kPa	227.268 kg/m3
370.36 K, 4306.1 kPa	265.199 kg/m3
370.82 K, 4238.2 kPa	146.893 kg/m3
